Measured values as given in the supplement of paper PMC10307832.

Compound: CO[C@H]1C[C@@H]2CC[C@@H](C)[C@@](O)(O2)C(=O)C(=O)N2CCCC[C@H]2C(=O)O[C@H]([C@H](C)C[C@@H]2CC[C@@H](OCCO)[C@H](OC)C2)CC(=O)[C@H](C)/C=C(\C)[C@@H](O)[C@@H](OC)C(=O)[C@H](C)C[C@H](C)/C=C/C=C/C=C/1C [Everolimus] + Cc1cc(Nc2cc(N3CCN(C)CC3)nc(Sc3ccc(NC(=O)C4CC4)cc3)n2)n[nH]1 [Tozasertib] (partner 0.1 µM)
Assay: relative viability (nuclei count vs DMSO), 5 days (fraction); higher = more cells survive
Procedure, shortened: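 The day after seeding in 1536-well plates, lung cancer cell lines were treated by pin tool with a single drug, or with a fixed anchor-drug dose together with five library-drug doses (not always all listed) in √10 steps. After 5 days, a combined fix-and-stain solution (final 0.05% Triton X-100, 1% formaldehyde, 1 ug/ml Hoechst) was added. Nuclei counted on 4× images gave relative viability as treated counts over vehicle counts, reported as the median of duplicate plates.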

Cell Line	relative viability (first compound 0.01 µM)	relative viability (first compound 0.03162 µM)	relative viability (first compound 0.1 µM)	relative viability (first compound 0.3162 µM)	relative viability (first compound 1 µM)
201T	0.898	0.913	0.801	0.843	0.906
A-427	0.17	0.164	0.203	0.184	0.19
ABC-1	0.183	0.172	0.163	0.193	0.208
BEN	0.462	0.452	0.491	0.415	0.354
CAL-12T	0.173	0.217	0.212	0.167	0.182
COR-L23	0.334	0.324	0.288	0.255	0.233
COR-L 105	0.312	0.305	0.332	0.346	0.292
ChaGo-K-1	0.226	0.208	0.215	0.215	0.238
EKVX	0.327	0.333	0.214	0.257	0.259
EMC-BAC-2	0.289	0.296	0.244	0.258	0.266
EPLC-272H	0.19	0.286	0.176	0.242	0.216
H3255	0.597	0.55	0.412	0.462	0.402
HARA	0.226	0.126	–	0.116	0.293
HCC-15	0.483	0.457	0.437	0.365	0.272
HCC-44	1.07	1.07	0.94	0.97	1.19
HCC-78	0.361	0.428	0.406	0.426	0.454
HCC-366	0.097	0.102	0.347	0.0539	0.0447
HCC-827	0.451	0.417	0.404	0.378	0.366
HOP-62	0.441	0.362	0.363	0.41	0.264
LC-2-ad	0.434	0.384	0.385	0.423	0.343
LCLC-97TM1	0.189	0.216	0.181	0.196	0.171
LCLC-103H	0.459	0.451	0.4	0.446	0.322
LK-2	0.165	–	0.179	0.17	0.17
LOU-NH91	0.637	0.608	0.63	0.609	0.656

Cell Line	relative viability (first compound 0.01 µM)	relative viability (first compound 0.03162 µM)	relative viability (first compound 0.1 µM)	relative viability (first compound 0.3162 µM)	relative viability (first compound 1 µM)
LU99A	0.23	0.282	0.252	0.222	0.263
LXF-289	0.217	0.217	0.162	0.205	0.193
NCI-H23	0.396	0.295	0.299	0.358	0.217
NCI-H322M	0.416	0.355	0.397	0.421	0.426
NCI-H358	0.0999	0.106	0.0871	0.101	0.0971
NCI-H441	0.521	0.643	0.636	0.555	0.54
NCI-H460	0.719	0.698	0.603	0.538	0.569
NCI-H520	0.271	0.28	0.264	0.222	0.239
NCI-H522	0.584	0.432	0.409	0.505	0.458
NCI-H596	0.528	0.548	0.485	0.455	0.478
NCI-H647	0.28	0.281	0.198	0.344	0.14
NCI-H650	0.738	–	0.604	0.589	0.45
NCI-H661	0.363	0.368	0.391	0.359	0.376
NCI-H727	0.525	0.562	0.505	0.713	0.53
NCI-H838	0.266	0.258	0.27	0.237	0.245
NCI-H1355	0.497	0.398	0.355	0.413	0.32
NCI-H1395	0.56	0.56	0.493	0.523	0.507
NCI-H1437	0.421	0.51	0.411	0.403	0.361
NCI-H1648	0.41	0.776	0.585	0.549	0.388
NCI-H1650	0.46	0.424	0.416	0.445	0.482
NCI-H1651	0.616	0.542	0.383	0.485	0.366
NCI-H1666	0.571	0.625	0.559	0.668	0.527
NCI-H1734	0.263	0.234	0.223	0.235	0.248
NCI-H1755	0.594	0.488	0.538	0.525	0.425

Cell Line	relative viability (first compound 0.01 µM)	relative viability (first compound 0.03162 µM)	relative viability (first compound 0.1 µM)	relative viability (first compound 0.3162 µM)	relative viability (first compound 1 µM)
NCI-H1793	0.253	0.197	0.234	0.203	0.188
NCI-H1915	0.514	0.46	0.42	0.432	0.418
NCI-H1944	0.215	0.236	0.205	0.224	0.185
NCI-H1975	0.658	0.62	0.528	0.64	0.466
NCI-H1993	0.482	0.508	0.573	0.521	0.485
NCI-H2009	0.576	0.65	0.545	0.612	0.491
NCI-H2023	0.273	0.203	0.235	0.235	0.225
NCI-H2085	0.81	0.723	0.602	0.656	0.557
NCI-H2087	0.256	0.199	0.198	0.218	0.174
NCI-H2126	0.64	0.609	0.52	0.637	0.568
NCI-H2170	0.443	0.428	0.461	0.518	0.399
NCI-H2228	0.23	0.244	0.271	0.211	0.137
NCI-H2342	0.557	0.4	0.435	0.352	0.407
NCI-H2347	0.531	0.519	0.365	0.506	0.305
NCI-H2405	0.832	0.729	0.717	0.762	0.657
NCI-H3122	0.417	0.517	0.421	0.439	0.363
PC-3 [JPC-3]	0.927	0.806	0.849	0.868	0.873
PC-14	0.592	0.673	0.499	0.417	0.424
RERF-LC-KJ	0.398	0.436	0.382	0.431	0.428
SK-LU-1	0.285	0.262	0.24	0.241	0.289
SK-MES-1	0.791	0.807	0.794	0.779	0.662
SW 900	0.332	0.462	0.442	0.404	0.448
SW 1573	0.16	0.172	0.13	0.157	0.132
UMC-11	0.212	0.195	0.208	0.215	0.198
